Source: PMC5059851, “Inhibition of Hedgehog-dependent tumors and cancer stem cells by a newly identified naturally occurring chemotype” (Cell Death & Disease, 2016)

Assays:
[1] = tested on: cerebellar granule cell progenitors (GCPs); test: BrdU proliferation assay in SAG-treated cerebellar granule cell progenitors; format: cell-based, mouse; conditions: SAG + compound at 5 and 10 μM, 48 h
Description: Hh signaling is a critical regulator of cerebellum development controlling the proliferation of granule cell progenitors (GCPs) under Purkinje cell-derived Shh stimuli. Withdrawal of Hh signal, occurring physiologically after the first post-natal week in mice,[54] causes cell growth arrest and induces their differentiation into mature granules.[55] Importantly, genetic and epigenetic alterations in the Hh pathway are responsible for the lack of GCPs proliferation arrest, leading to the tumorigenic conversion of these progenitors, considered as the cell of origin of MB.[56], [57] To investigate the biological effects of 12, we first tested its ability to suppress Hh-dependent growth in 4-day-old mouse cerebellar progenitors.
Figure 4 Compound 12 inhibition of Hh-dependent growth of cerebellum granule cell progenitors. […] (a) Inhibition of cell proliferation was measured as percentage of BrdU incorporation in comparison with SAG-treated sample. […] (c) qRT-PCR analysis show Hh and proliferation targets mRNA expression levels determined in GCPs culture derived from 4-day-old mouse cerebella treated with SAG alone or in combination with compound 12 at 5 and 10 μM concentrations for 48 h. […]
(§1) Cell proliferation was evaluated by BrdU detection (Roche, Welwyn Garden City, UK). […] At least 500 nuclei were counted in triplicate, and the number of BrdU-positive nuclei was recorded. […]

[2] = molecular target: T1, human Smo D473H (Homo sapiens, UniProt Q99835, D473H); test: Bodipy-Cyclopamine (BC) binding assay, HEK293T cells transfected with human Smo D473H
T1 construct: Myc-DDK; expressed in transfected cells; host or cells: HEK293T
Experimental: Cells were washed in PBS supplemented with 0.5% fetal bovine serum, fixed in 4% paraformaldehyde in phosphate-buffered saline (PBS) for 10 min, and incubated for 2 h at 37 °C both in the same medium supplemented with Bodipy-Cyclopamine (5 nM) and the studied compounds. The cells were permeabilized with Triton X100 (Sigma) 0.2%. Dako Fluorescent mounting (Dako, Carpinteria, CA, USA) was used as mounting medium and Hoechst reagent for staining of the cell nuclei. Bodipy (green) and Hoechst (blue) signals were analyzed in three to four representative fields per coverslip (× 20 magnification, 1000 cells/field). Data were expressed as percentage of BC incorporation observed with BC alone.[95]

[3] = tested on: human prostate carcinoma epithelial 22Rv1 cells; test: Trypan blue growth count of 22Rv1 cells; format: cell-based; conditions: versus Cyclopamine, Vismodegib, LDE-225
Experimental: (§2) After the indicated times, a trypan blue count was performed to determine the growth rate. […] Results were normalized to endogenous control (β-actin and HPRT).
(§3) Cell proliferation was evaluated by BrdU detection (Roche, Welwyn Garden City, UK). Briefly, after the BrdU pulse (24 h for GCPs) cells were fixed with 4% paraformaldehyde and permeabilized with 0.2% Triton X-100, and BrdU detection was performed according to the manufacturer's instructions. Nuclei were counterstained with Hoechst reagent. At least 500 nuclei were counted in triplicate, and the number of BrdU-positive nuclei was recorded. To determine the growth rate of viable cells, a trypan blue count was performed after a treatment period of 24–48–72 h with studied compound.

[4] = tested on: Gli1 mRNA; test: Gli1 mRNA (qRT-PCR) in 22Rv1 cells; format: cell-based, human; conditions: after treatment
Experimental: as §2
(§4) Total RNA was isolated with Trizol (Invitrogen/Life Technologies, Carlsbad, CA, USA) and reverse transcribed with SensiFAST cDNA Synthesis Kit (Bioline Reagents Limited, London, UK). Quantitative real-time PCR (Q-PCR) analysis of Gli1, Gli2, Ptch1, Bmp2, Pfkfb3, CycD1, CycD2, Pcna, Oct4, Nanog, β-2 microglobulin, β-actin and HPRT mRNA expression was performed on each cDNA sample using the VIIA7 Real Time PCR System employing Assay-on-Demand Reagents (Life Technologies).

[5] = tested on: Gli1 mRNA; test: Gli1 mRNA (qRT-PCR) in primary MB cells from Ptch1+/− mice; format: cell-based, mouse; conditions: ex vivo cultures from Ptch1^+/− mice MBs
Experimental: as §4

[6] = tested on: murine Ptch1^+/− MB stem-like cells; test: MB stem cells neurosphere-forming assay; format: cell-based, mouse; conditions: 7 days of treatment, increasing concentrations
Experimental: Figure 5 Compound 12 inhibition of Hh-dependent MB tumor cell growth. […] (a and b) After the indicated times, a trypan blue count was performed to determine the growth rate of viable cells. (c) Gli1 mRNA expression levels were determined by qRT-PCR normalized to endogenous control (β2-microglobulin and HPRT). (d–f) Compound 12 inhibits MB-SCs self-renewal. (d) Suspension of single MB-SCs isolated from Ptch1^+/− mice were cultured in stem cell medium to allow the formation of primary neurospheres. Primary neurospheres were dissociated and treated with increasing concentrations of compound 12, Cyclopamine or DMSO only. After 7 days of treatment, the number of secondary neurospheres derived from a known number of single cells was counted. The self-renewal MB-SCs' capability is expressed as percentage of neurosphere-forming cells. (e) Representative bright-field images of tumor neurospheres after compound 12 or Cyclopamine treatment are also shown. (f) MB-SCs isolated from Ptch1^+/− mice MBs were treated for 48 h with compound 12 or DMSO only. qRT-PCR analysis show Hh, proliferation and stemness target mRNA. For qRT-PCR, results were normalized to endogenous control (β2-microglobulin and HPRT). […]
as §1

[7] = tested on: human medulloblastoma DAOY cells; test: Trypan blue growth count of DAOY cells; format: cell-based; conditions: versus Cyclopamine, Vismodegib, LDE-225
Experimental: as §2, §3

T1 sequence (Q99835 28-787 D473H): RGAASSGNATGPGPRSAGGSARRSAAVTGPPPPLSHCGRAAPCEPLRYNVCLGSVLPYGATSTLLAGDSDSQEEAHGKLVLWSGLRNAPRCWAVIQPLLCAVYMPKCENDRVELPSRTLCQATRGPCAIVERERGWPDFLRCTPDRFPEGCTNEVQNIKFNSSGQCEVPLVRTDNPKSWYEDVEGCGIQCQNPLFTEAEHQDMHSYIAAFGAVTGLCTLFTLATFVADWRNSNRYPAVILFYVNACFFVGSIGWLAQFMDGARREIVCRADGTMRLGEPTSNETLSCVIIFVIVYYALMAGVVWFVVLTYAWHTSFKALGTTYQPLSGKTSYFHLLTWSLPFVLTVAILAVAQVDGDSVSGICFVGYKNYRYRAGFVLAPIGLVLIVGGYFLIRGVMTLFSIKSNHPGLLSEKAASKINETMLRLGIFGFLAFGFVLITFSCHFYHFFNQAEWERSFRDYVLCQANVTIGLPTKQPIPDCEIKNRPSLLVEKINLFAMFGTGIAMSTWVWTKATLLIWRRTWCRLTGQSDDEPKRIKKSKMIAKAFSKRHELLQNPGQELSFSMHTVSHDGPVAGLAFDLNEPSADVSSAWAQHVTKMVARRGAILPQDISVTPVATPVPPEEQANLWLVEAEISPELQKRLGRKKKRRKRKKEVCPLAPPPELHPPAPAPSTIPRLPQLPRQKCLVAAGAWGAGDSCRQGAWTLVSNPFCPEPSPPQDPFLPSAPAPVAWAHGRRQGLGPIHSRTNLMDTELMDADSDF

## COc1ccc(C=CC(=O)c2cc(OC)c(OC)cc2OC)cc1OC [Compound 12, 3-(3,4-dimethoxy-phenyl)-1-(2,4,5-trimethoxy-phenyl)-2-propen-1-one]
[1]
  BrdU uptake / proliferation rate of GCPs: reduced significantly
[2]; BC (5 nM) displacement, transiently transfected 293T cells
  IC50: 22.7 µM
[2]; BC displacement assay
  activity on the D473H drug-resistant Smo mutant: active
[2]; IC50 Smo D473H / IC50 Smo WT
  Fold shift human Smo: 0.9257
[2]; resistant Smo mutants versus WT
  loss of affinity for the resistant Smo mutants in binding assay: conserved the same affinity
[3]
  inhibition of 22Rv1 cell proliferation: higher activity than other Smo antagonists
[4]
  Gli1 mRNA levels in 22Rv1 cells: significant decrease of Gli1 mRNA levels
[5]
  Gli1 mRNA levels in primary MB cells: decrease of Gli1 mRNA levels
[6]
  clonogenic self-renewal ability (neurosphere formation): suppressed
[7]
  inhibition of DAOY cell proliferation: higher activity than other Smo antagonists
